In patent US20030155090A1, “Process for controlling microbial growth” (priority 2000, published 2003):

Legend:
Strain 1 = experiment: Survival of isolated bacteria in nutrient broth under a CO2 atmosphere at 45° C., colony count on agar plates; format: cell-based
Description: (§1) A set of representative bacterial strains was isolated from a white water sample from a Swedish recycled pulp mill. The sample originally yielded 70 bacterial strains which each represented a group of different bacteria, which grew under similar conditions. The strains were tested on different media and their oxygen demands were studied. The results gave an indication of eight main groups. […] Those three groups were put together to one large group.
(§2) From this dominating group, one strain was chosen for the carbon dioxide experiments. Two other strains from another recycled pulp mill were included in the experiments.
(§3) Glass bottles were tempered to 45° C. and CO2 was added to create a carbon dioxide atmosphere. Bacteria from the three isolated strains were added to separate bottles together with a nutrient broth. A first sample representing “0 min” was taken out immediately from each bottle and then at a number of occasions during the next three hours. Each sample was diluted in dilution series with dilution 1/10 in six steps (10^1-10^6) and grown on agar plates. The plates were incubated at 45° C. for two days, after which the number of colonies were counted and related to the dilution.

Strain 2 = experiment: as above; format: cell-based
Description: as §1, §2, §3

Strain 3 = experiment: as above; format: cell-based
Description: as §1, §2, §3

three isolated strains = experiment: Survival under a CO2 atmosphere, average of the three isolated strains; format: cell-based, bacteria; settings: for percentage of surviving cells, Average: 45° C.
Description: as §1, §2, §3

[1] = tested on: microbial activity during storage; experiment: Full-scale mill trial, carbon dioxide introduced just prior to the pulp storage tower; settings: 1-2 kg CO2/ton pulp just prior to the storage tower, chemical pulp
Description: A mill produced wood-free paper from chemical pulp. At the time of the trials, the mill stored pulp for long periods of time in storage towers prior to the stock preparation. The storage caused problems with bad smell and black spots in the pulp, which was believed to be caused by high microbial activity during storage.
A full-scale trial of treatment with a gaseous inhibitor was performed. Thus, carbon dioxide gas was introduced in an amount of 1-2 kg CO2/ton pulp just prior to the storage tower.

For O=C=O [CO2, carbon dioxide], the “percentage of surviving cells” value (Strain 1; Strain 1, 0 min) was 100%, the “percentage of surviving cells” value (Strain 1; Strain 1, 10 min) was 75% and the “percentage of surviving cells” value (Strain 1; Strain 1, 20 min) was 34%. For the same molecule, the “percentage of surviving cells” value (Strain 1; Strain 1, 30 min) was 73%, the “percentage of surviving cells” value (Strain 1; Strain 1, 40 min) was 50% and the “percentage of surviving cells” value (Strain 1; Strain 1, 50 min) was 61%. The “percentage of surviving cells” value (Strain 1; Strain 1, 60 min) was 59%, the “percentage of surviving cells” value (Strain 1; Strain 1, 80 min) was 39% and the “percentage of surviving cells” value (Strain 1; Strain 1, 100 min) was 16%. The “percentage of surviving cells” value (Strain 1; Strain 1, 120 min) was 18%, the “percentage of surviving cells” value (Strain 1; Strain 1, 140 min) was 5% and the “percentage of surviving cells” value (Strain 1; Strain 1, 160 min) was 4%. The “percentage of surviving cells” value (Strain 1; Strain 1, 180 min) was 9%, the “percentage of surviving cells” value (Strain 2; Strain 2, 0 min) was 100% and the “percentage of surviving cells” value (Strain 2; Strain 2, 10 min) was 141%. For the same molecule, the “percentage of surviving cells” value (Strain 2; Strain 2, 20 min) was 76%, the “percentage of surviving cells” value (Strain 2; Strain 2, 30 min) was 137% and the “percentage of surviving cells” value (Strain 2; Strain 2, 40 min) was 48%. The “percentage of surviving cells” value (Strain 2; Strain 2, 50 min) was 94%, the “percentage of surviving cells” value (Strain 2; Strain 2, 60 min) was 46% and the “percentage of surviving cells” value (Strain 2; Strain 2, 80 min) was 88%. For the same molecule, the “percentage of surviving cells” value (Strain 2; Strain 2, 100 min) was 55%, the “percentage of surviving cells” value (Strain 2; Strain 2, 120 min) was 43% and the “percentage of surviving cells” value (Strain 2; Strain 2, 140 min) was 35%. The “percentage of surviving cells” value (Strain 2; Strain 2, 160 min) was 41%, the “percentage of surviving cells” value (Strain 2; Strain 2, 180 min) was 24% and the “percentage of surviving cells” value (Strain 3; Strain 3, 0 min) was 100%. For the same molecule, the “percentage of surviving cells” value (Strain 3; Strain 3, 10 min) was 92%, the “percentage of surviving cells” value (Strain 3; Strain 3, 20 min) was 77% and the “percentage of surviving cells” value (Strain 3; Strain 3, 30 min) was 58%. For the same molecule, the “percentage of surviving cells” value (Strain 3; Strain 3, 40 min) was 47%, the “percentage of surviving cells” value (Strain 3; Strain 3, 50 min) was 36% and the “percentage of surviving cells” value (Strain 3; Strain 3, 60 min) was 67%. For the same molecule, the “percentage of surviving cells” value (Strain 3; Strain 3, 80 min) was 44%, the “percentage of surviving cells” value (Strain 3; Strain 3, 100 min) was 42% and the “percentage of surviving cells” value (Strain 3; Strain 3, 120 min) was 16%. For the same molecule, the “percentage of surviving cells” value (Strain 3; Strain 3, 140 min) was 7%, the “percentage of surviving cells” value (Strain 3; Strain 3, 160 min) was 4% and the “percentage of surviving cells” value (Strain 3; Strain 3, 180 min) was 2%. For the same molecule, the “percentage of surviving cells, Average” value (three isolated strains; Average of Strains 1-3, 0 min) was 100%, the “percentage of surviving cells, Average” value (three isolated strains; Average of Strains 1-3, 10 min) was 103% and the “percentage of surviving cells, Average” value (three isolated strains; Average of Strains 1-3, 20 min) was 62%. The “percentage of surviving cells, Average” value (three isolated strains; Average of Strains 1-3, 30 min) was 89%, the “percentage of surviving cells, Average” value (three isolated strains; Average of Strains 1-3, 40 min) was 48% and the “percentage of surviving cells, Average” value (three isolated strains; Average of Strains 1-3, 50 min) was 64%. The “percentage of surviving cells, Average” value (three isolated strains; Average of Strains 1-3, 60 min) was 57%, the “percentage of surviving cells, Average” value (three isolated strains; Average of Strains 1-3, 80 min) was 57% and the “percentage of surviving cells, Average” value (three isolated strains; Average of Strains 1-3, 100 min) was 38%. For the same molecule, the “percentage of surviving cells, Average” value (three isolated strains; Average of Strains 1-3, 120 min) was 47%, the “percentage of surviving cells, Average” value (three isolated strains; Average of Strains 1-3, 140 min) was 16% and the “percentage of surviving cells, Average” value (three isolated strains; Average of Strains 1-3, 160 min) was 16%. The “percentage of surviving cells, Average” value (three isolated strains; Average of Strains 1-3, 180 min) was 12%, the bacteria survived (three isolated strains; after 2 hours) was “about 50%” and the bacteria survived (three isolated strains; after 3 hours) was “more than 10%”. The bacteria survived (three isolated strains; after approximately 1 hour) was “about 60%”, the “number of black spots in the pulp” value [1] was “reduced” and the “pulp's smell” value [1] was “reduced”.
